Columns and labels:
Assay type in all cases: cell-based, human
[1] = system: isolated whole sweat glands; test: Evaluation of test substance for perspiration-controlling action: moving distance of cells in whole sweat glands stimulated with pilocarpine; conditions: atropine pre-incubated 30 minutes, pilocarpine 10 mM after 10 minutes
Description: Whole sweat glands were observed by time-lapse imaging in the same manner as in Example 1 except that Krebs-Ringer solution was used in place of PBS, that atropine as a test substance was added onto the whole sweat glands before observing the whole sweat glands by using time-lapse imaging and thereafter the whole sweat glands were incubated for 30 minutes, and that pilocarpine was added onto the whole sweat glands so as to have a concentration of 10 mM after 10 minutes passed from the initiation of the observation (Experiment No. 1). Next, cells E, F, G, H and I were selected from the image of FIG. 21, and a moving distance of each cell was examined in the same manner as in Example 1. Next, the average value of moving distances of cells was obtained by using the moving distance of each cell. The scale bar in FIG. 21 means 50 μm.
In addition, whole sweat glands were observed by time-lapse imaging in the same manner as in Example 1 except that Krebs-Ringer's solution was used in place of PBS and that pilocarpine was added onto the whole sweat glands so as to have a concentration of 10 mM after 10 minutes passed from the initiation of the observation (Experiment No. 2). Next, cells J, K, L, M and N were selected from the image of FIG. 22, and a moving distance of each cell was examined in the same manner as in Example 1. […]

[2] = system: isolated whole sweat glands; test: Time-lapse imaging of stained isolated whole sweat glands held with collagen in PBS: moving distance of cells after stimulant; conditions: pilocarpine 10 mM added 60 seconds after initiation of observation, when 150 to 300 seconds passed from initiation, FIG. 5
Description: As skin tissues, skin tissues which were refrigerated immediately after removal from living donors and stored at 4° C. for 15 hours were used. The skin tissues were immersed in a phosphate-buffered saline containing 10 μM Neutral Red, to incorporate Neutral Red into sweat glands included in the skin tissues. Next, the dermis of each of the skin tissues was finely cut to obtain dermal segments. Whole sweat glands were collected from the dermal segments by using tweezers under an optical microscope. […]
After 5 minutes passed from the addition of the buffer, the observation with the time-lapse imaging of the whole sweat glands on the glass bottom dish was started by using a confocal laser scanning microscope for biological use (inverted microscope (manufactured by Olympus Corporation, trade name: IX-83) equipped with FV 1200 manufactured by Olympus Corporation)). At that time, the whole sweat glands were visualized by detecting fluorescence derived from the nuclear staining reagent bound to the nucleus and fluorescence derived from the cytoskeleton-staining reagent bound to the cytoskeleton. […]
wherein n is the same as mentioned above. […] The actual moving distance (μm) of the cell was calculated by multiplying the movement value by the size per coordinate 1.

[3] = system: isolated whole sweat glands; test: Time-lapse imaging of whole sweat glands in Krebs-Ringer solution: outer and inner diameter index values of sweat gland tubule after stimulant; conditions: pilocarpine 10 mM added after 10 minutes
Description: Whole sweat glands were observed by time-lapse imaging in the same manner as in Example 1 except that Krebs-Ringer solution (composition: 125 mM sodium chloride, 5 mM potassium chloride, 1 mM calcium chloride, 1. 2 mM magnesium chloride, 25 mM sodium bicarbonate, 1.2 mM dihydrogen phosphate sodium, 5 mM glucose and 10 mg/100 mL of fatty acid-free bovine serum albumin, pH 7.48) was used in place of PBS. After 10 minutes passed from the initiation of the observation, pilocarpine which was a sweat gland contraction-inducing reagent (stimulant) was added to the whole sweat glands so as to have a concentration of 10 mM, and thereafter the observation of the whole sweat glands using the time-lapse imaging was continued. Next, changes of each outer diameter index values at the determined sites (A) to (C) shown in FIG. 17 with the passage of time were obtained by using the image analysis software (manufactured by BITPLANE, trade name: Imaris). The outer diameter index value was obtained by stacking data in the Z direction and performing calculation in which the image analysis software was used in the “Surface” mode under the following setting conditions: In FIG. 17, the determined site (A) is a portion enveloped by myoepithelial cells. The determined site (B) and the determined site (C) are portions which are not enveloped by myoepithelial cells, and which are flow pathways for sweat. Further, the scale bar in FIG. 17 means 50 μm. After cancelling the stacking of the data in the Z direction, changes of an inner diameter index value at the determined sites (A) to (C) shown in FIG. 18 were calculated with one kind of data in the Z direction. The internal diameter index value was obtained by preparing the surface model, then extracting the components included in the surface model with Mask tool included in an image analysis software and performing calculation with the image analysis software under the following setting conditions: […]

[4] = site not enveloped by myoepithelial cells, FIG. 19
[5] = site not enveloped by myoepithelial cells, FIG. 20

SMILES	perspiration-controlling action judged from sweat gland dynamics [1]	changes of a moving distance of each cell included in the sweat glands with the passage of time, compared with sweat glands not contacted with atropine ([1]; Krebs-Ringer solution, FIG. 23 vs FIG. 24)	moving distances of the cell A, the cell B, the cell C, and the cell D [2]	outer diameter index value at the determined site (A) ([3]; site enveloped by myoepithelial cells, FIG. 19)	inner diameter index value at the determined site (A) ([3]; site enveloped by myoepithelial cells, FIG. 20)	outer diameter index value at the determined site (B) [3, 4]	outer diameter index value at the determined site (C) [3, 4]	diameter index value at the determined site (B), results of FIG. 20 [3, 5]	diameter index value at the determined site (C), results of FIG. 20 [3, 5]
CN1[C@@H]2CC[C@H]1C[C@@H](OC(=O)C(CO)c1ccccc1)C2 (stereo partly drawn) [atropine]	has an antiperspirant action	smaller							
CC[C@@H]1C(=O)OC[C@@H]1Cc1cncn1C [pilocarpine]			become larger	decreases after stimulating with the stimulant and then increases	greatly decreases after stimulating with the stimulant and then increases	increases after stimulating with the stimulant	hardly changes after stimulating with the stimulant	hardly changes immediately after stimulating with the stimulant, but the outer diameter index value increases when passing a certain time	hardly changes immediately after stimulating with the stimulant, but the outer diameter index value increases when passing a certain time
